System: CN0375-F725-PDC KRAS spheroid viability
Assay: Anticancer human tumor CN0375-F725-PDC patient-derived colon carcinoma cell line growth inhibition [KRAS2]
Conditions: spheroids with HUVEC and MSC; for viability, T/C: stronger effect = lower value
Procedure, shortened: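 KRAS-mutant tumor cells were grown as spheroids with HUVEC endothelial cells and human MSCs as stroma. Targeted agents were tested alone and with KRAS pathway inhibitors. Doses started at or near clinical Cmax, or 10 microM, descending half-log.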

[1] = curve of first compound, second compound 0.1 µM
[2] = curve of first compound, second compound 0.316 µM
[3] = curve of first compound, second compound 1 µM
[4] = curve of first compound, second compound 3.16 µM
[5] = curve of first compound, second compound 10 µM
[6] = second compound 0.1 µM, first compound 0.01 µM
[7] = second compound 0.1 µM, first compound 0.0316 µM
[8] = second compound 0.1 µM, first compound 0.1 µM
[9] = second compound 0.316 µM, first compound 0.01 µM
[10] = second compound 0.316 µM, first compound 0.0316 µM
[11] = second compound 0.316 µM, first compound 0.1 µM
[12] = second compound 1 µM, first compound 0.01 µM
[13] = second compound 1 µM, first compound 0.0316 µM
[14] = second compound 1 µM, first compound 0.1 µM
[15] = second compound 3.16 µM, first compound 0.01 µM
[16] = second compound 3.16 µM, first compound 0.0316 µM
[17] = second compound 3.16 µM, first compound 0.1 µM
[18] = second compound 10 µM, first compound 0.01 µM
[19] = second compound 10 µM, first compound 0.0316 µM
[20] = second compound 10 µM, first compound 0.1 µM
[21] = second compound 0.1 µM, first compound 0.316 µM
[22] = second compound 0.1 µM, first compound 1 µM
[23] = second compound 0.1 µM, first compound 3.16 µM
[24] = second compound 0.316 µM, first compound 0.316 µM
[25] = second compound 0.316 µM, first compound 1 µM
[26] = second compound 0.316 µM, first compound 3.16 µM
[27] = second compound 1 µM, first compound 0.316 µM
[28] = second compound 1 µM, first compound 1 µM
[29] = second compound 1 µM, first compound 3.16 µM
[30] = second compound 3.16 µM, first compound 0.316 µM
[31] = second compound 3.16 µM, first compound 1 µM
[32] = second compound 3.16 µM, first compound 3.16 µM
[33] = second compound 10 µM, first compound 0.316 µM
[34] = second compound 10 µM, first compound 1 µM
[35] = second compound 10 µM, first compound 3.16 µM
[36] = second compound 0.1 µM, first compound 10 µM
[37] = second compound 0.316 µM, first compound 10 µM
[38] = second compound 1 µM, first compound 10 µM
[39] = second compound 3.16 µM, first compound 10 µM
[40] = second compound 10 µM, first compound 10 µM
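Also: spheroids exposed to agents for 7 days.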

SMILES | IC50 [1] | IC50 [2] | IC50 [3] | IC50 [4] | IC50 [5] | viability, T/C [7] | viability, T/C [8] | viability, T/C [10] | viability, T/C [11] | viability, T/C [13] | viability, T/C [14] | viability, T/C [16] | viability, T/C [17] | viability, T/C [19] | viability, T/C [20] | viability, T/C [21] | viability, T/C [22] | viability, T/C [23] | viability, T/C [24] | viability, T/C [25] | other results
Cn1ncnc1[C@H]1c2n[nH]c(=O)c3cc(F)cc(c23)N[C@@H]1c1ccc(F)cc1 + CC1OCC2(CCN(c3cnc(Sc4ccnc(N)c4Cl)c(N)n3)CC2)C1N | > 0.1 µM | > 0.1 µM | > 0.1 µM | > 0.1 µM | > 0.1 µM | 99.2% | 90.3% | 92.5% | 81% | 82.1% | 80% | 75.5% | 78.2% | 61.1% | 61.2% | – | – | – | – | – | viability, T/C (second compound 0.1 µM, first compound 0.000316 µM): 103%; viability, T/C (second compound 0.1 µM, first compound 0.001 µM): 95.2%; viability, T/C (second compound 0.1 µM, first compound 0.00316 µM): 93.4%; viability, T/C [6]: 91.6%; viability, T/C (second compound 0.316 µM, first compound 0.000316 µM): 97.5%; viability, T/C (second compound 0.316 µM, first compound 0.001 µM): 87.3%; viability, T/C (second compound 0.316 µM, first compound 0.00316 µM): 87.8%; viability, T/C [9]: 85.2%; viability, T/C (second compound 1 µM, first compound 0.000316 µM): 88.4%; viability, T/C (second compound 1 µM, first compound 0.001 µM): 89.5%; viability, T/C (second compound 1 µM, first compound 0.00316 µM): 83.5%; viability, T/C [12]: 86.3%; viability, T/C (second compound 3.16 µM, first compound 0.000316 µM): 79.5%; viability, T/C (second compound 3.16 µM, first compound 0.001 µM): 80.4%; viability, T/C (second compound 3.16 µM, first compound 0.00316 µM): 81%; viability, T/C [15]: 76.3%; viability, T/C (second compound 10 µM, first compound 0.000316 µM): 70.9%; viability, T/C (second compound 10 µM, first compound 0.001 µM): 72.7%; viability, T/C (second compound 10 µM, first compound 0.00316 µM): 67.2%; viability, T/C [18]: 63.9%
CC(=O)OC12COC1CC(O)C1(C)C(=O)C(O)C3=C(C)C(OC(=O)C(O)C(NC(=O)OC(C)(C)C)c4ccccc4)CC(O)(C(OC(=O)c4ccccc4)C21)C3(C)C (configuration not stated) + CNCc1ccccc1-c1csc(C(C)Nc2nc(C)nc3cc(OC)c(OC)cc23)c1 | > 3.16 µM | > 3.16 µM | > 3.16 µM | < 0.01 µM | < 0.01 µM | 97.7% | 80.7% | 89.4% | 77.5% | 99.7% | 91.8% | 100% | 0.66% | 0.57% | 0.77% | 82.5% | 80.4% | 74.2% | 74.7% | 78.5% | viability, T/C [6]: 96.2%; viability, T/C [9]: 92.8%; viability, T/C [26]: 66.8%; viability, T/C [12]: 101%; viability, T/C [27]: 84%; viability, T/C [28]: 77.4%; viability, T/C [29]: 78%; viability, T/C [15]: 1.13%; viability, T/C [30]: 0.86%; viability, T/C [31]: 1.34%; viability, T/C [32]: 79.3%; viability, T/C [18]: 0.72%; viability, T/C [33]: 0.24%; viability, T/C [34]: 0.62%; viability, T/C [35]: 0.25%
COC(=O)c1ccc2c(C(=Nc3ccc(N(C)C(=O)CN4CCN(C)CC4)cc3)c3ccccc3)c(O)[nH]c2c1 + CC1OCC2(CCN(c3cnc(Sc4ccnc(N)c4Cl)c(N)n3)CC2)C1N | 2.34 µM | 2.18 µM | 2.25 µM | 2.01 µM | 1.27 µM | 104% | 103% | 102% | 91% | 79.2% | 84.6% | 76% | 82.4% | 66% | 73.2% | 89.3% | 85.9% | 37.4% | 84.8% | 81.3% | viability, T/C [36]: 0.19%; viability, T/C [26]: 35.4%; viability, T/C [37]: 0.2%; viability, T/C [27]: 93.5%; viability, T/C [28]: 75.3%; viability, T/C [29]: 38.8%; viability, T/C [38]: 0.16%; viability, T/C [30]: 83.2%; viability, T/C [31]: 69.2%; viability, T/C [32]: 36.9%; viability, T/C [39]: 0.37%; viability, T/C [33]: 68.5%; viability, T/C [34]: 60.3%; viability, T/C [35]: 11.7%; viability, T/C [40]: 1.38%
CC(=O)Nc1cccc(-n2c(=O)n(C3CC3)c(=O)c3c(Nc4ccc(I)cc4F)n(C)c(=O)c(C)c32)c1 | – | – | – | – | – | – | – | – | – | – | – | – | – | – | – | – | – | – | – | – | viability, T/C (compound 0.0001 µM): 97.8% [middle of 5 runs]; viability, T/C (compound 0.000316 µM): 84.8% [middle of 5 runs]; viability, T/C (compound 0.001 µM): 71.6% [middle of 5 runs]; viability, T/C (compound 0.00316 µM): 59.6% [middle of 5 runs]; viability, T/C (compound 0.01 µM): 47.5% [middle of 5 runs]; viability, T/C (compound 0.0316 µM): 34.5% [middle of 5 runs]; IC50 (curve of compound): 7.97 nM [middle of 5 runs]
COc1cc2nccc(Oc3ccc(NC(=O)C4(C(=O)Nc5ccc(F)cc5)CC4)cc3)c2cc1OC + CC1OCC2(CCN(c3cnc(Sc4ccnc(N)c4Cl)c(N)n3)CC2)C1N | > 10 µM | 5.81 µM | 2.58 µM | 1.88 µM | 0.644 µM | 104% | 94.5% | 99.5% | 94.6% | 86.3% | 84.7% | 84.4% | 78.9% | 66.9% | 69.3% | 83.3% | 69.3% | 56.3% | 85.9% | 68.4% | viability, T/C [36]: 63.2%; viability, T/C [26]: 44.6%; viability, T/C [37]: 53.5%; viability, T/C [27]: 75.5%; viability, T/C [28]: 67.9%; viability, T/C [29]: 38.4%; viability, T/C [38]: 53.9%; viability, T/C [30]: 71.7%; viability, T/C [31]: 60.7%; viability, T/C [32]: 36.7%; viability, T/C [39]: 46.8%; viability, T/C [33]: 57.9%; viability, T/C [34]: 46.2%; viability, T/C [35]: 25.9%; viability, T/C [40]: 31.2%
